# Data from PubChem BioAssay (NCI).
#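 Results reflect a 48-hour exposure of cells in 96-well plates to compound at five concentrations. GI50 is the concentration that inhibits growth by half. TGI: total growth inhibition.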
# Tests used:
# Test in all cases: inhibition of tumour cell growth, NCI panel, 48 h
# SR leukemia = system: SR leukemia
# IGROV1 ovarian = system: IGROV1 ovarian
# SN12C renal = system: SN12C renal
# BT-549 breast = system: BT-549 breast
# SF-268 CNS = system: SF-268 CNS
# HCT-116 colon = system: HCT-116 colon
# NCI-H460 lung = system: NCI-H460 lung
# NCI-H23 lung = system: NCI-H23 lung
# KM12 colon = system: KM12 colon
# ACHN renal = system: ACHN renal
# CCRF-CEM leukemia = system: CCRF-CEM leukemia
# SK-MEL-2 melanoma = system: SK-MEL-2 melanoma
# UACC-257 melanoma = system: UACC-257 melanoma
# UACC-62 melanoma = system: UACC-62 melanoma
# COLO 205 colon = system: COLO 205 colon
# RXF 393 renal = system: RXF 393 renal
# A498 renal = system: A498 renal
# SNB-75 CNS = system: SNB-75 CNS
# TK-10 renal = system: TK-10 renal
# SK-OV-3 ovarian = system: SK-OV-3 ovarian
# K-562 leukemia = system: K-562 leukemia
# SF-539 CNS = system: SF-539 CNS
# HS 578T breast = system: HS 578T breast
# HT29 colon = system: HT29 colon
# HOP-92 NSCLC = system: HOP-92 NSCLC
# MDA-MB-468 breast = system: MDA-MB-468 breast
# UO-31 renal = system: UO-31 renal
# EKVX NSCLC = system: EKVX NSCLC
# OVCAR-4 ovarian = system: OVCAR-4 ovarian
# A549 NSCLC = system: A549 NSCLC
# RPMI-8226 leukemia = system: RPMI-8226 leukemia
# DU-145 prostate = system: DU-145 prostate
# SW-620 colon = system: SW-620 colon
# CAKI-1 renal = system: CAKI-1 renal
# MOLT-4 leukemia = system: MOLT-4 leukemia
# OVCAR-5 ovarian = system: OVCAR-5 ovarian
# NCI-H522 lung = system: NCI-H522 lung
# PC-3 prostate = system: PC-3 prostate
# NCI/ADR-RES ovarian = system: NCI/ADR-RES ovarian
# OVCAR-8 ovarian = system: OVCAR-8 ovarian
# OVCAR-3 ovarian = system: OVCAR-3 ovarian
# MDA-MB-435 = system: MDA-MB-435
# NCI-H226 lung = system: NCI-H226 lung
# HCC-2998 colon = system: HCC-2998 colon
# HCT-15 colon = system: HCT-15 colon
# SK-MEL-28 melanoma = system: SK-MEL-28 melanoma
# HL-60(TB) leukemia = system: HL-60(TB) leukemia
# U251 CNS = system: U251 CNS
# SNB-19 CNS = system: SNB-19 CNS
# MDA-MB-231 breast = system: MDA-MB-231 breast
# M14 melanoma = system: M14 melanoma
# 786-0 renal = system: 786-0 renal
# SF-295 CNS = system: SF-295 CNS
# MALME-3M melanoma = system: MALME-3M melanoma
# T-47D breast = system: T-47D breast
# HOP-62 NSCLC = system: HOP-62 NSCLC
# LOX IMVI melanoma = system: LOX IMVI melanoma
# SK-MEL-5 melanoma = system: SK-MEL-5 melanoma
# MCF7 breast = system: MCF7 breast
compound,measurement,setting,value
COc1cnc2c(c1)C(=O)c1c-2n(CCCNCCO)c(=O)c2cc(OC)c(OC)cc12,GI50,SR leukemia,393 nM
same,TGI,SR leukemia,21.5 µM
same,GI50,IGROV1 ovarian,12.1 µM
same,TGI,IGROV1 ovarian,28 µM
same,GI50,SN12C renal,3.28 µM
same,TGI,SN12C renal,16 µM
same,GI50,BT-549 breast,9.48 µM
same,TGI,BT-549 breast,22.9 µM
same,GI50,SF-268 CNS,920 nM
same,TGI,SF-268 CNS,20.9 µM
same,GI50,HCT-116 colon,1150 nM
same,TGI,HCT-116 colon,2850 nM
same,GI50,NCI-H460 lung,423 nM
same,TGI,NCI-H460 lung,8.75 µM
same,GI50,NCI-H23 lung,395 nM
same,TGI,NCI-H23 lung,2340 nM
same,GI50,KM12 colon,12.4 µM
same,TGI,KM12 colon,25.9 µM
same,GI50,ACHN renal,2100 nM
same,TGI,ACHN renal,13.2 µM
same,GI50,CCRF-CEM leukemia,268 nM
same,TGI,CCRF-CEM leukemia,18.8 µM
same,GI50,SK-MEL-2 melanoma,17.1 µM
same,TGI,SK-MEL-2 melanoma,37.9 µM
same,GI50,UACC-257 melanoma,13.6 µM
same,TGI,UACC-257 melanoma,> 100 µM
same,GI50,UACC-62 melanoma,1170 nM
same,TGI,UACC-62 melanoma,10.4 µM
same,GI50,COLO 205 colon,3.33 µM
same,TGI,COLO 205 colon,20 µM
same,GI50,RXF 393 renal,1520 nM
same,TGI,RXF 393 renal,5.81 µM
same,GI50,A498 renal,12.5 µM
same,TGI,A498 renal,25.6 µM
same,GI50,SNB-75 CNS,352 nM
same,TGI,SNB-75 CNS,10.3 µM
same,GI50,TK-10 renal,15.5 µM
same,TGI,TK-10 renal,30.1 µM
same,GI50,SK-OV-3 ovarian,1620 nM
same,TGI,SK-OV-3 ovarian,5.98 µM
same,GI50,K-562 leukemia,708 nM
same,TGI,K-562 leukemia,22.9 µM
same,GI50,SF-539 CNS,492 nM
same,TGI,SF-539 CNS,2400 nM
same,GI50,HS 578T breast,12.1 µM
same,TGI,HS 578T breast,43.1 µM
same,GI50,HT29 colon,1460 nM
same,TGI,HT29 colon,10.9 µM
same,GI50,HOP-92 NSCLC,5.07 µM
same,TGI,HOP-92 NSCLC,20.8 µM
same,GI50,MDA-MB-468 breast,1080 nM
same,TGI,MDA-MB-468 breast,2780 nM
same,GI50,UO-31 renal,5.96 µM
same,TGI,UO-31 renal,19.5 µM
same,GI50,EKVX NSCLC,6.9 µM
same,TGI,EKVX NSCLC,20.4 µM
same,GI50,OVCAR-4 ovarian,8.24 µM
same,TGI,OVCAR-4 ovarian,27.6 µM
same,GI50,A549 NSCLC,4.88 µM
same,TGI,A549 NSCLC,20.7 µM
same,GI50,RPMI-8226 leukemia,1730 nM
same,TGI,RPMI-8226 leukemia,10.5 µM
same,GI50,DU-145 prostate,726 nM
same,TGI,DU-145 prostate,12.1 µM
same,GI50,SW-620 colon,1370 nM
same,TGI,SW-620 colon,18.2 µM
same,GI50,CAKI-1 renal,1850 nM
same,TGI,CAKI-1 renal,16.3 µM
same,GI50,MOLT-4 leukemia,311 nM
same,TGI,MOLT-4 leukemia,19.1 µM
same,GI50,OVCAR-5 ovarian,4.91 µM
same,TGI,OVCAR-5 ovarian,18.4 µM
same,GI50,NCI-H522 lung,459 nM
same,TGI,NCI-H522 lung,3.33 µM
same,GI50,PC-3 prostate,2770 nM
same,TGI,PC-3 prostate,22.2 µM
same,GI50,NCI/ADR-RES ovarian,16.4 µM
same,TGI,NCI/ADR-RES ovarian,> 100 µM
same,GI50,OVCAR-8 ovarian,3000 nM
same,TGI,OVCAR-8 ovarian,16 µM
same,GI50,OVCAR-3 ovarian,4.52 µM
same,TGI,OVCAR-3 ovarian,16.9 µM
same,GI50,MDA-MB-435,6.88 µM
same,TGI,MDA-MB-435,20.7 µM
same,GI50,NCI-H226 lung,1350 nM
same,TGI,NCI-H226 lung,9.83 µM
same,GI50,HCC-2998 colon,2250 nM
same,TGI,HCC-2998 colon,10.8 µM
same,GI50,HCT-15 colon,2740 nM
same,TGI,HCT-15 colon,14.6 µM
same,GI50,SK-MEL-28 melanoma,13.2 µM
same,TGI,SK-MEL-28 melanoma,26.2 µM
same,GI50,HL-60(TB) leukemia,733 nM
same,TGI,HL-60(TB) leukemia,13.5 µM
same,GI50,U251 CNS,495 nM
same,TGI,U251 CNS,10.8 µM
same,GI50,SNB-19 CNS,1470 nM
same,TGI,SNB-19 CNS,15.3 µM
same,GI50,MDA-MB-231 breast,6.52 µM
same,TGI,MDA-MB-231 breast,20.3 µM
same,GI50,M14 melanoma,3.77 µM
same,TGI,M14 melanoma,15.8 µM
same,GI50,786-0 renal,2540 nM
same,TGI,786-0 renal,14.9 µM
same,GI50,SF-295 CNS,418 nM
same,TGI,SF-295 CNS,12.3 µM
same,GI50,MALME-3M melanoma,7.2 µM
same,TGI,MALME-3M melanoma,21.6 µM
same,GI50,T-47D breast,746 nM
same,TGI,T-47D breast,12.3 µM
same,GI50,HOP-62 NSCLC,349 nM
same,TGI,HOP-62 NSCLC,3.78 µM
same,GI50,LOX IMVI melanoma,475 nM
same,TGI,LOX IMVI melanoma,1900 nM
same,GI50,SK-MEL-5 melanoma,720 nM
same,TGI,SK-MEL-5 melanoma,3.16 µM
same,GI50,MCF7 breast,174 nM
same,TGI,MCF7 breast,4.05 µM
